Like-named read-outs stand apart in the source and are kept apart here.
Assays:
HCT116 MTAP null cells = assay: HCT116 proliferation assay, MTAP null cells (CellTiter-Glo, 6 days); type: cell-based; conditions: 144 h, read-out: Protif_ HCT116-MTAP null IC50
Procedure: (§1) HCT116 MTAP null and WT cells were seeded in 96-well tissue culture plates in RPMI 1640 media + 10% fetal bovine serum. Plates were incubated overnight at 37° C. and 5% CO2. Cells were then treated with a 8- or 9-point serial dilution of compound, using a top concentration of 1 or 10 µM, 1:3 serial dilution steps and, a DMSO-only control. Cells were incubated in the presence of drug for 6 days. Effects on cell viability were measured with the CellTiter-Glo® Luminescent Cell Viability Assay (Promega) per manufacturer’s recommendation. Assay plates were read on an EnVision™ Multilabel Reader using the Ultra-Sensitive luminescence module.

HCT116 WT cells = assay: HCT116 proliferation assay, WT cells (CellTiter-Glo, 6 days); type: cell-based; conditions: Homo sapiens, HCT-116, 144 h, read-out: Prolif_HCT116-WT IC50
Procedure: as §1

Row | IC50 (HCT116 MTAP null cells; HCT116-MTAP null) | IC50 (HCT116 WT cells) | SMILES | IC50 (HCT116 MTAP null cells)
1 | 422 nM | > 10000 nM | Cc1cc2cc(C(=O)N(Cc3ccc(C(F)(F)F)cn3)[C@H](C)c3cccc(C#N)n3)ccc2nc1N (single isomer, unassigned) [Example 811] | 
2 | 43 nM | 1040 nM | Cc1cc2cc(C(=O)N(Cc3ccc(C(F)(F)F)cn3)[C@@H]3CCC[C@H]3C#N)ccc2nc1N (single isomer, unassigned) [Example 812] | 
3 | 98 nM | 2630 nM | Cc1cc2cc(C(=O)N(Cc3ccc(C(F)(F)F)nn3)[C@@H]3CCCn4ccnc43)ccc2nc1N (single isomer, unassigned) [Example 813] | 
4 | 62 nM | 1760 nM | Cc1cc2cc(C(=O)N(Cc3ccc(C(F)(F)F)cn3)[C@@H]3COCc4ncccc43)ccc2nc1N (single isomer, unassigned) [Example 814] | 
5 | 250 nM | 5150 nM | Cc1cc2cc(C(=O)N(Cc3ccc(C(F)(F)F)cn3)[C@@H]3CCOC[C@H]3O)ccc2nc1N (single isomer, unassigned) [Example 815] | 
6 | 369 nM | 1310 nM | Cc1cc2cc(C(=O)N(Cc3ccc(C(F)(F)F)cn3)[C@H]3CCC[C@@H]3OC(F)F)ccc2nc1N (single isomer, unassigned) [Example 817] | 
7 | 24 nM | 372 nM | Cc1cc2cc(C(=O)N(Cc3ccc(C(F)(F)F)cn3)[C@H](C)c3ncon3)ccc2nc1N (single isomer, unassigned) [Example 818] | 
8 | 29 nM | 543 nM | Cc1cc2cc(C(=O)N(Cc3ccc(Cl)nn3)[C@H](C)c3ncccn3)ccc2nc1N (single isomer, unassigned) [Example 819] | 
9 | 239 nM | 3550 nM | Cc1cc2cc(C(=O)N(Cc3ccc(C#N)nc3C)[C@H](C)c3ncccn3)ccc2nc1N (single isomer, unassigned) [Example 820] | 
10 | 129 nM | > 10000 nM | C[C@H](c1ncccn1)N(Cc1cc2c(cn1)OCCC2)C(=O)c1ccc2nc(N)c(I)cc2c1 (single isomer, unassigned) [Example 836] | 
11 | 507 nM | 8460 nM | CC(c1ncccc1F)N(Cc1ccc(N2CCOCC2)nn1)C(=O)c1cnc2nc(N)c(Br)cc2c1 (stereo in doubt) [Example 730, 7-amino-6-bromo-N-((1R)-1-(3-fluoro-2-pyridinyl)ethyl)-N-((6-(4-morpholinyl)-3-pyridazinyl)methyl)-1,8-naphthyridine-3-carboxamide] | 
12 | 50 nM | 693 nM | Cc1cc2cc(C(=O)N(Cc3ccc(N4CCOCC4)nn3)C(C)c3ncccn3)c(F)cc2nc1N (stereo in doubt) [Example 731, 2-amino-7-fluoro-3-methyl-N-((6-(4-morpholinyl)-3-pyridazinyl)methyl)-N-((1R)-1-(2-pyrimidinyl)ethyl)-6-quinolinecarboxamide] | 
13 | 184 nM | > 10000 nM | COc1ccc(CN(C(=O)c2ccc3nc(N)c(Br)cc3c2)C(C)c2ncn(C)n2)nn1 (stereo in doubt) [Example 755, (R)-2-amino-3-bromo-N-((6-methoxypyridazin-3-yl)methyl)-N-(1-(1-methyl-1H-1,2,4-triazol-3-yl)ethyl)quinoline-6-carboxamide] | 
14 | 168 nM | 4230 nM | Cc1cc2cc(C(=O)N(Cc3ccc(C(F)(F)F)cn3)Cc3ncccn3)c(F)cc2nc1N [Example 319, 2-amino-7-fluoro-3-methyl-N-(2-pyrimidinylmethyl)-N-((5-(trifluoromethyl)-2-pyridinyl)methyl)-6-quinolinecarboxamide] | 
15 | 405 nM | > 10000 nM | Cc1cc2cc(C(=O)N(Cc3ccc(C(F)(F)F)cn3)Cc3ncc(Cl)cn3)ccc2nc1N [Example 339, 2-amino-N-((5-chloro-2-pyrimidinyl)methyl)-3-methyl-N-((5-(trifluoromethyl)-2-pyridinyl)methyl)-6-quinolinecarboxamide] | 
16 | 165 nM | > 1000 nM | Cc1cc2cc(C(=O)N(Cc3ccc(N4CCCCC4)cc3)Cc3ccnc4[nH]ccc34)ccc2nc1N [Example 563, 2-amino-3-methyl-N-[[4-(1-piperidyl)phenyl]methyl]-N-(1H-pyrrolo [2,3-b]pyridin-4-ylmethyl)quinoline-6-carboxamide] | 
17 | 102 nM | > 1000 nM | Cc1cc2cc(C(=O)N(Cc3ccc(C(F)(F)F)cn3)Cc3csnn3)ccc2nc1N [Example 564, 2-amino-3-methyl-N-(thiadiazol-4-ylmethyl)-N-[[5-(trifluoromethyl)-2-pyridyl]methyl] quinoline-6-carboxamide] | 
18 | 331 nM | 7160 nM | Cc1cc2cc(C(=O)N(Cc3ccc4c(c3)NC(=O)CO4)Cc3ccccc3F)ccc2nc1N [Example 569, 2-amino-N-[(2-fluorophenyl)methyl]-3-methyl-N-[(3-oxo-4H-1,4-benzoxazin-6-yl)methyl] quinoline-6-carboxamide] | 
19 | 202 nM | > 1000 nM | Cc1cc2cc(C(=O)N(Cc3ccc(N4CCC(C(N)=O)CC4)cc3)CC(C)C3CC3)ccc2nc1N (stereo not shown) [Example 571, 2-amino-N-(4-(4-carbamoylpiperidin-1-yl)benzyl)-N-(2-cyclopropylpropyl)-3-methylquinoline-6-carboxamide] | 
20 | 760 nM | > 1000 nM | Cc1cc2cc(C(=O)N(Cc3ccc(N4CCC(C(N)=O)CC4)cc3)Cc3ccnc4[nH]ccc34)ccc2nc1N [Example 573, N-((1H-pyrrolo[2,3-b]pyridin-4-yl)methyl)-2-amino-N-(4-(4-carbamoylpiperidin-1-yl)benzyl)-3-methylquinoline-6-carboxamide] | 
21 | 490 nM | > 1000 nM | Cc1cc2cc(C(=O)N(Cc3ccc(N4CCCCC4)cc3)CC3(C#N)CC3)ccc2nc1N [Example 574, 2-amino-N-((1-cyanocyclopropyl)methyl)-3-methyl-N-(4-(piperidin-1-yl)benzyl)quinoline-6-carboxamide] | 
22 | 95 nM | > 1000 nM | Cc1cc2cc(C(=O)N(Cc3ccc(C(F)(F)F)cn3)Cc3ncoc3C)ccc2nc1N [Example 579, 2-amino-3-methyl-N-[(5-methyloxazol-4-yl)methyl]-N-[[5-(trifluoromethyl)-2-pyridyl]methyl]quinoline-6-carboxamide] | 
23 | 490 nM | > 1000 nM | Cc1cc2cc(C(=O)N(Cc3ccc(C(F)(F)F)cn3)Cc3cc(Cl)cn3C)ccc2nc1N [Example 582, 2-amino-N-((4-chloro-1-methyl-1H-pyrrol-2-yl)methyl)-3-methyl-N-((5-(trifluoromethyl)pyridin-2-yl)methyl)quinoline-6-carboxamide] | 
24 | 140 nM | > 1000 nM | Cc1cc2cc(C(=O)N(Cc3cc[nH]c3)Cc3ccc(C(F)(F)F)cn3)ccc2nc1N [Example 583, N-((1H-pyrrol-3-yl)methyl)-2-amino-3-methyl-N-((5-(trifluoromethyl)pyridin-2-yl)methyl)quinoline-6-carboxamide] | 
25 | 290 nM | > 1000 nM | CCOC(C)CN(Cc1ccc(C(F)(F)F)cn1)C(=O)c1ccc2nc(N)c(C)cc2c1 (stereo not shown) [Example 584, 2-amino-N-(2-ethoxypropyl)-3-methyl-N-((5-(trifluoromethyl)pyridin-2-yl)methyl)quinoline-6-carboxamide] | 
26 | 580 nM | 11000 nM | Cc1cc2cc(C(=O)N(CCc3ccon3)Cc3ccc(C(F)(F)F)cn3)ccc2nc1N [Example 585, 2-amino-N-(2-(isoxazol-3-yl)ethyl)-3-methyl-N-((5-(trifluoromethyl)pyridin-2-yl)methyl)quinoline-6-carboxamide] | 
27 | 344 nM | 5550 nM | CCc1csc(CN(Cc2ccc(C(F)(F)F)cn2)C(=O)c2ccc3nc(N)c(C)cc3c2)n1 [Example 586, 2-amino-N-((4-ethylthiazol-2-yl)methyl)-3-methyl-N-((5-(trifluoromethyl)pyridin-2-yl)methyl)quinoline-6-carboxamide] | 
28 | 807 nM | 404 nM | Cc1cc2cc(C(=O)N(Cc3ccccc3F)C3CC(c4ccc(OC(F)(F)F)cc4)C3)ccc2nc1N (stereo not shown) [Example 587, 2-amino-N-(2-fluorobenzyl)-3-methyl-N-(3-(4-(trifluoromethoxy)phenyl)cyclobutyl)quinoline-6-carboxamide] | 

Row | SMILES | IC50 (HCT116 MTAP null cells; HCT116-MTAP null) | IC50 (HCT116 WT cells) | IC50 (HCT116 MTAP null cells)
29 | Cc1cc2cc(C(=O)N(Cc3ccc(C(F)(F)F)cn3)CC(C)C)ccc2nc1N [Example 300, 2-amino-N-isobutyl-3-methyl-N-((5-(trifluoromethyl)pyridin-2-yl)methyl)quinoline-6-carboxamide] |  | 5300 nM | 317 nM
30 | [2H]C([2H])([2H])c1cc2cc(C(=O)N(Cc3ccc(C(F)(F)F)cn3)CC(C)C)ccc2nc1N [Example 398, 2-amino-N-isobutyl-3-(methyl-d3)-N-((5-(trifluoromethyl)pyridin-2-yl)methyl)quinoline-6-carboxamide] |  | 4780 nM | 247 nM
31 | [2H]C([2H])([2H])c1cc2cc(C(=O)N(Cc3ccc(C(F)(F)F)cn3)[C@H](C)c3ncccn3)ccc2nc1N [Example 399, (R)-2-amino-3-(methyl-d3)-N-(1-(pyrimidin-2-yl)ethyl)-N-((5-(trifluoromethyl)pyridin-2-yl)methyl)quinoline-6-carboxamide] |  | 872 nM | 36 nM
32 | Cc1cc2cc(C(=O)N(Cc3ccc(C(F)(F)F)cn3)[C@H](C)c3ncccn3)ccc2nc1N [Example 503, 2-amino-3-methyl-N-((1R)-1-(2-pyrimidinyl)ethyl)-N-((5-(trifluoromethyl)-2-pyridinyl)methyl)-6-quinolinecarboxamide] |  | 680 nM | 26 nM
